{"source": "patent US20260191874A1", "about": "“FUSED AMINO PYRIMIDINE COMPOUNDS FOR TREATMENT OF AUTISM SPECTRUM DISORDER, OBSESSIVE COMPULSIVE DISORDER AND TICS” (Ovid Therapeutics Inc., priority 2024, published 2026)", "key": {"acute brain slices": {"test_system": "acute brain slices", "assay": "Acute brain slices exposed to 0-Mg"}, "KCC3": {"target": "T1, KCC3 (Homo sapiens, UniProt Q9UHW9)", "T1 construct": "expressed in transfected cells; host or cells: HEK-293", "T1 sequence (Q9UHW9 1-1150)": "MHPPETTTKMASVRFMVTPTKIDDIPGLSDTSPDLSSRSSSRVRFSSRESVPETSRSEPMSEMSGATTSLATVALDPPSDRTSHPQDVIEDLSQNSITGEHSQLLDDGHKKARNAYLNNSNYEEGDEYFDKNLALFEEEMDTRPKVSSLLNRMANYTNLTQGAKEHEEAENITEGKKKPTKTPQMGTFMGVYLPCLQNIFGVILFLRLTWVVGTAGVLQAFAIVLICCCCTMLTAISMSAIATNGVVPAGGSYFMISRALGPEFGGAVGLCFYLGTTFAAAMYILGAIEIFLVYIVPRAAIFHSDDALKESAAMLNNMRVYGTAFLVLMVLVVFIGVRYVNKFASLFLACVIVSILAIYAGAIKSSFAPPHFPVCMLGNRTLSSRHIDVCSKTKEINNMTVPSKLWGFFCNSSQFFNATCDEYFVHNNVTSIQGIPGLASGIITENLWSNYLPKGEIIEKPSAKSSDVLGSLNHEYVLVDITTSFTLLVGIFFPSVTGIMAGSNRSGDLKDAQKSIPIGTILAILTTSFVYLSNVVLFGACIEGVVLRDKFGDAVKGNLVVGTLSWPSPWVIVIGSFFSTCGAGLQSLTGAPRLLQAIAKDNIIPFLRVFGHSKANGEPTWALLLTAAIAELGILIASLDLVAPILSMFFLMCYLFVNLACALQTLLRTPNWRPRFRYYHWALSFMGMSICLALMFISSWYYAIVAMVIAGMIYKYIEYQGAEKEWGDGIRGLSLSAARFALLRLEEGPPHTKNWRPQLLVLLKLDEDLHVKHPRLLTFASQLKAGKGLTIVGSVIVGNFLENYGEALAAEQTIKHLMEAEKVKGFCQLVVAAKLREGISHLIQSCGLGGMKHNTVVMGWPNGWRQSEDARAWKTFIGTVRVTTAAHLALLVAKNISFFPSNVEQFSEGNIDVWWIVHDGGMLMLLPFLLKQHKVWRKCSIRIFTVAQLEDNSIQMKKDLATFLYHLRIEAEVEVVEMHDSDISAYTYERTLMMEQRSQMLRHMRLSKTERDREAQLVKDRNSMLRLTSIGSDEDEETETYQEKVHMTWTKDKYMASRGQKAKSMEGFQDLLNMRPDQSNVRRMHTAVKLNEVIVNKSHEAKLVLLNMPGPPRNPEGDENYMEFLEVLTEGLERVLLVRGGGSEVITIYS", "assay": "Tl+ flux assay in HEK-293 cells expressing KCC3", "format": "cell-based", "details": "read-out: concentration at which effects on KCC3 were seen (EC50 chart, FIG. 1G)", "method": "(§1) FLIPR TI Flux assay. HEK-293 cells were washed with HBSS, and then incubated with loading buffer containing TI sensitive fluorescent dye (https://www.moleculardevices.com), 20 μM bumetanide 20 μM ouabain and 2.5 mM probenecid for 1 h at room temperature (RT) under control conditions or with drugs in the dark using a FlexStation 3 microplate reader (Molecular Devices) and imaged […] for 30 min. Stimulus buffer was added containing 5 mM K^+/0.5 mM Tl^+ and cells were imaged every 1.5 over a 190 second time course The initial rate Tl^+ uptake (Relative Fluorescence Units (RFU) per second) was determined following addition of the stimulus buffer as outlined previously (Conway et al., 2017, supra) (Lee et al., 2022, supra).\n(§2) Several studies have shown that the activity and plasma membrane accumulation of KCC2 is potentiated via phosphorylation of S940, a process mediated by the activity of protein kinase C and protein phosphatase 1 (Lee et al., 2011, supra; Lee et al., J Biol Chem 282, 29777-29784 (2007); Moore et al., Proc. Natl. Acad. Sci. U.S.A 115, 10166-10171 (2018); Moore et al., Trends Neurosci. 40, 555-571 (2017); Silayeva et al., Proc. Natl. Acad. Sci. U.S.A 112, 3523-3528 (2015)). […] Compared to KCC2, effects on KCC3, KCC4, and NKCC1 were only seen at concentrations more than 35-fold that of KCC2 (≥100 μM) (FIG. 1G)."}, "KCC2-S940A": {"target": "T2, KCC2-S940A (Homo sapiens, UniProt Q9H2X9, S963A)", "T2 construct": "expressed in transfected cells; host or cells: HEK-293", "T2 sequence (Q9H2X9 1-1116 isoform Q9H2X9-2 S940A)": "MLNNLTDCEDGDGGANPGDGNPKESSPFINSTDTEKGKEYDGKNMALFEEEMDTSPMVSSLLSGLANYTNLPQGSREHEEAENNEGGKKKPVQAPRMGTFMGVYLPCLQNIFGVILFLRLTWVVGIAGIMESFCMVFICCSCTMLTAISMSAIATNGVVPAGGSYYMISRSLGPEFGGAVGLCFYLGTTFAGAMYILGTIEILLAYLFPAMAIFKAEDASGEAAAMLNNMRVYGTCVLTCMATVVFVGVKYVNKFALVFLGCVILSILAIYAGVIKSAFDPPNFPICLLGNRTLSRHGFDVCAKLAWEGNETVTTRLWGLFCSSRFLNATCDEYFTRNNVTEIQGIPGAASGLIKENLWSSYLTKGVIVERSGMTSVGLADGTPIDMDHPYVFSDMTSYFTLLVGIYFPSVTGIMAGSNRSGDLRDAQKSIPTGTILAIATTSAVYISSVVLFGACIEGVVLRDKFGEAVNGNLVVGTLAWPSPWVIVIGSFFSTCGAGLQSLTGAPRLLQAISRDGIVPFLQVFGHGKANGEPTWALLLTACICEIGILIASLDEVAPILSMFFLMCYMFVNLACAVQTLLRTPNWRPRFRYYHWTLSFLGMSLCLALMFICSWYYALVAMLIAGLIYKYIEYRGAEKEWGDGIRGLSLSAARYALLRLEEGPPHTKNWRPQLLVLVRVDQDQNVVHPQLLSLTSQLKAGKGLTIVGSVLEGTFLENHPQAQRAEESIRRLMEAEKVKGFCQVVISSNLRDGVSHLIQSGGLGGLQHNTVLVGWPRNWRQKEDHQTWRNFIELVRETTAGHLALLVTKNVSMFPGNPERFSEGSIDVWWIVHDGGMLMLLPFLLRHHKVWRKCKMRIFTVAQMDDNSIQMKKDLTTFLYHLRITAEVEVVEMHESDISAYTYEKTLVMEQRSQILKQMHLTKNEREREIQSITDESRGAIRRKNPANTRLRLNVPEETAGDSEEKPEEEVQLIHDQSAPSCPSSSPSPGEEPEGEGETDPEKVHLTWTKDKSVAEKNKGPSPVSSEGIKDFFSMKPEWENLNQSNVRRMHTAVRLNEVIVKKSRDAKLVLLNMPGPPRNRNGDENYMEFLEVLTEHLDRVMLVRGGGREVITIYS", "assay": "Tl+ flux assay in HEK-293 cells expressing KCC2-S940A", "format": "cell-based", "method": "as §1, §2"}}, "data": [{"smiles": "C[C@@H]1CN(c2nc3c(c(Nc4ccc(C5CCCCC5)cc4)n2)COC3)CCO1", "note": "[Compound A, (R)—N-(4-cyclohexylphenyl)-2-(2-methylmorpholino)-5,7-dihydrofuro[3,4-d]pyrimidin-4-amine]", "values": [{"measurement": "neuronal Cl− accumulation and development of late recurrent discharges (LRDs)", "setting": "acute brain slices", "result": "reduced"}, {"measurement": "EC50", "setting": "KCC3", "result": "≥ 100", "unit": "µM"}, {"measurement": "activity of KCC2-S940A construct", "setting": "KCC2-S940A", "result": "increased the activity"}]}]}
